Results as given in article PMC3335862, “Novel Small-Molecule Inhibitors of Hepatitis C Virus Entry Block Viral Spread and Promote Viral Clearance in Cell Culture” (PLoS ONE, 2012).
Where two headings read alike, the source gives them in different places.

What was measured:
[1] = test system: HCVpp GT1a Pass. Ctrl.; assay: microbe, parasite or virus in culture; assay type: cell-based; conditions: Hepatitis C virus, envelope from DMSO passage control culture
[2] = test system: HCVpp GT 1b V719A; assay type: cell-based, hepatitis C virus; conditions: Genotype 1b background
[3] = test system: Hep3B, Huh-7, 293T, HeLa, Daudi, Ramos, Jurkat, primary hepatocyte; conditions: CellTiter Glo assay; data not shown except Hep3B
[4] = test system: HCVpp GT 1b; assay: microbe, parasite or virus in culture; assay type: cell-based; conditions: Hepatitis C virus, GT1B
[5] = test system: GT 1a/2a HCV; assay: HCV cell culture infection assay (Renilla luciferase), GT 1a/2a; conditions: Hepatitis C virus, GT1A, read-out: HCV Cell Culture EC50 GT 1a/2a
[6] = test system: HCVpp pseudotyped with the GT1a envelope; assay: microbe, parasite or virus in culture; assay type: cell-based; conditions: Hepatitis C virus, Hep3B cells, 72 h
[7] = test system: GT 1a/2a HCV; assay: HCV viral spread assay (cell-free and cell-cell transmission), flow cytometry; assay type: cell-based, hepatitis C virus; conditions: 72 h; PRO0371155 1 µM, PA-25 10 µg/mL; DMSO control 18.3, Background 0.31
From the text: Figure 3 PRO0371155 inhibits HCV infection by both cell-free and cell-cell modes of transmission. […] TEXT PRINTED IN THE PICTURE: PA-25: 7.54; 19.9; 66.8; 5.75 | DMSO: 4.4; 29.8; 47.6; 18.3 | PRO0371155: 8.1; 25.7; 65.7; 0.48 DOUBTS OF THE COPYIST ABOUT THIS PICTURE: All values are quadrant numbers of flow cytometry plots, given in the order upper left, upper right, lower left, lower right. The picture prints no measure or unit with them. / The print is very small, so 3, 5, 6, 8 and 9 cannot be told apart with certainty in any of the values below. / PA-25: 7.54, 19.9, 66.8 (partly hidden by data points; may be 65.8 or 68.8), 5.75 / DMSO: 4.4, 29.8 (or 29.6), 47.6 (partly hidden by data points; may be 47.8), 18.3 (or 18.8) / PRO0371155: 8.1, 25.7, 65.7 (partly hidden by data points), 0.48 (or 0.46) / The plot headed 'Background' (0.016, 5.44e-3, 99.7, 0.31) is left out because it is a staining control and not a substance.
8.8.7 software (TreeStar).
To determine whether the triazine series can block both routes of infection, we utilized a flow cytometry-based cell-to-cell transmission assay. Infected cells, stained with CellTracker green, were mixed with naïve cells in the presence or absence of entry inhibitors.

[8] = test system: GT 1b/2a HCV; assay: HCV cell culture infection assay (Renilla luciferase), GT 1b/2a; conditions: Hepatitis C virus, GT1B, read-out: HCV Cell Culture EC50 GT 1b/2a
[9] = test system: HCVpp T388A; assay type: cell-based, hepatitis C virus
[10] = test system: HCVpp typed with envelopes representing genotypes 2a, 2b, 3, and 6; assay: microbe, parasite or virus in culture; assay type: cell-based; conditions: Hepatitis C virus
[11] = test system: HCVpp GT 1b-V719I; assay type: cell-based, hepatitis C virus; conditions: Genotype 1b background
[12] = test system: HCVpp GT 1a V719A; assay type: cell-based, hepatitis C virus
[13] = test system: HCVpp V719G; assay type: cell-based, hepatitis C virus; conditions: GT1a background
[14] = in vitro; conditions: human
[15] = test system: VSVpp; assay: microbe, parasite or virus in culture; assay type: cell-based, VSV
[16] = test system: GT 1a/2a HCV
[17] = test system: HCVpp genotype 4; assay: microbe, parasite or virus in culture; assay type: cell-based; conditions: Hepatitis C virus; n = 1 strain
[18] = test system: HCVpp GT 1a-V719I; assay type: cell-based, hepatitis C virus
[19] = test system: GT 1a/2a HCV; assay: Quantification of HCV RNA by qRT-PCR in long term treated cultures
[20] = test system: HCVpp GT1a-V719L; assay type: cell-based, hepatitis C virus; conditions: GT1a background
[21] = test system: HCVpp GT 1b-V719L; assay type: cell-based, hepatitis C virus; conditions: Genotype 1b background
[22] = culture initially 33% HCV+, 1 µM

CS(=O)(=O)N1CCC(Nc2nc(Nc3cccc(C(F)(F)F)c3)nc(OCC(F)(F)F)n2)CC1 [PRO0371155]
EC50 [1]: 4 nM | EC50 [2]: 273 nM | fold change of EC50 vs parent GT 1b, V719A [2]: 0.9 × | cytotoxicity against a panel of cell lines and primary cells [3]: minimal cytotoxicity | EC50 ([4]; Hep3B, parent GT 1b envelope, read-out: EC50, HCVpp GT 1b): 317 nM | EC50 ([4]; median across panel of GT 1b envelopes from HCV+ patient sera (n = strains), Hep3B cells, 72 h, read-out: HCVpp Median EC50 GT 1b): > 825 nM | EC50 [5]: 9 nM | EC50 ([6]; median across panel of GT 1a envelopes from HCV+ patient sera (n = strains), read-out: HCVpp Median EC50 GT 1a): 9 nM | EC50 ([6]; prototypical/parent GT 1a envelope, read-out: GT1a (EC50), HCVpp): 2 nM | newly infected HCV+ cells (lower right quadrant) [7]: 0.48% | EC50 [8]: > 1000 nM | influence of T388A on susceptibility in the HCVpp assay [9]: did not have any influence | EC50 ([9]; GT1a background): 2 nM | EC50 [10]: > 1000 nM | EC50 [11]: > 1000 nM | fold change of EC50 vs parent GT 1b, V719I [11]: 3 × | reduction in potency vs parent GT1a envelope, V719A ([12]; GT1a background): 46 fold | EC50 ([12]; Genotype 1a background): 92 nM | fold change of EC50 vs parent GT 1a, V719A ([12]; Genotype 1a background): 46 × | EC50 [13]: > 1000 nM | loss in susceptibility, V719G vs GT1a in the HCVpp assay [13]: > 500 fold | CC50 [14]: 31000 nM | inhibition of entry of pseudoviral particles with envelope glycoproteins from irrelevant viruses including VSV [15]: did not inhibit | EC50 ([15]; Vesicular stomatitis virus, read-out: VSVpp EC50): 39000 nM | change in percentage of HCV+ cells (NS3 staining) ([16]; 20% HCV+ at baseline, PRO0371155 1 µM, IFN-alpha 10 IU/mL): more gradual decline | day of viral breakthrough in the presence of compound [16, 22]: 21 days | time to loss of viral suppression and emergence of drug resistance [16, 22]: ~3 weeks | fate of infected cells on long term treatment ([16]; culture initially 90% HCV+, 1 µM): eradicated | viral rebound during washout period ([16]; drug released at day 116, passaged additional 30 days, 90% HCV+ culture): not observed | EC50 [17]: 190 nM | reduction in potency vs parent GT1a envelope, V719I ([18]; GT1a background): 34 fold | EC50 ([18]; Genotype 1a background): 67 nM | fold change of EC50 vs parent GT 1a, V719I ([18]; Genotype 1a background): 34 × | time HCV RNA maintained at background levels after removal of compound [19]: > 50 days | HCV RNA levels ([19]; after 100 days in the presence of compound, 1 µM, limit of quantification): < 0.5 copies/cell | reduction in activity vs parent GT1a envelope, V719L [20]: 500 fold | EC50 [21]: > 1000 nM | fold change of EC50 vs parent GT 1b, V719L [21]: 3 ×
